Data reported in patent US6552027B2, “Quinazolines for treating brain tumor” (Parker Hughes Institute, priority 1998, dated 2003).
Counter-ions that a name gives are not always drawn. Like-named read-outs stand apart in the source and are kept apart here. Each block holds one compound with its values, some of them ahead of it.

Tests used:
[1] = system: U373 human glioblastoma cell line; assay: MTT cytotoxicity assay, U373 glioblastoma cells; conditions: for IC50: Homo sapiens, U373 MG
Description: (§1) The cytotoxicity assay of various compounds against human brain tumor cell lines was performed using the MTT (3-[4,5-dimethylthiazol-2-yl]-2,5-diphenyl tetrazolium bromide) assay (Boehringer Mannheim Corp., Indianapolis, Ind.). Briefly, exponentially growing brain tumor cells were seeded into a 96-well plate at a density of 2.5×10^4 cells/well and incubated for 36 hours at 37° C. prior to drug exposure. […] Triplicate wells were used for each treatment.
Human glioblastoma cell line U373 was obtained from American. Type Culture Collection (Rockville, Md.) and maintained as a continuous cell line in Dulbecco's modified Eagles's medium supplemented with 10% fetal bovine serum and antibiotics. The B-lineage acute lymphoblastic leukemia cell line Nalm-6 was used as a negative control.
(§2) The cells were incubated with the various compounds for 24-36 hours at 37° C. in a humidified 5% CO2 atmosphere. To each well, 10 μl of MTT (0.5 mg/ml final concentration) was added and the plates were incubated at 37° C. for 4 hours to allow MTT to form formazan crystals by reacting with metabolically active cells. The formazan crystals were solubilized overnight at 37° C. in a solution containing 10% SDS in 0.01 M HCl. The absorbence of each well was measured in a microplate reader (Labsystems) at 540 nm and a reference wavelength of 690 nm. To translate the OD540 values into the number of live cells in each well, the OD540 values were compared to those on standard OD540—versus—cell number curves generated for each cell line. The percent survival was calculated using the formula: [formula]
(§3) The IC50 values were calculated by non linear regression analysis.

U373 cells = assay: Adhesion of glioblastoma cells to ECM protein-coated plates; type: cell-based, human; conditions: for IC50: Homo sapiens, U373 MG
Description: In vitro adhesion assays were performed to (a) study the baseline adhesive properties of various glioblastoma cell lines and (b) evaluate the effects of quinazoline derivatives on the adhesive properties of glioblastoma cells. The plates for the adhesion assays were precoated with the extracellular matrix proteins laminin, fibronectin or type IV collagen (each at a final concentration of 1 μg/ml in PBS) overnight at 4° C. and dried. On the day of the experiment, the wells were rehydrated and blocked with 10% bovine serum albumin in PBS for 1 hour at room temperature and used for the adhesion assays, as described below.
DMSO (0.1%) was included as a vehicle control. After treatment, cells were detached from the flasks with 0.05% trypsin (Life Technologies) resuspended in DMEM, incubated at 37° C. for 2 hours to allow them to recover from the trypsinization stress and examined for their ability to adhere to plates precoated with ECM proteins.
In adhesion assays, cells were centrifuged, washed twice with serum-free DMEM, counted and resuspended in serum-free DMEM to a final concentration of 2.5×10^5 cells/ml. One hundred μl of the cell suspension containing 2.5×10^4 cells were added to each well and cells were allow d to adhere for 1 hour at 37° C. in a humidified 5% CO2 atmosphere. The adherent fraction was quantitated using MTT (3-[4,5-dimethylthiazol-2-yl]-2,5-diphenyltetrazolium bromide) assays. […] The adherent fractions of cells treated with quinazoline derivatives were compared to those of DMSO-treated control cells and the percent inhibition of adhesion was determined sing the formula: [formula]
Each treatment condition was evaluate d in duplicate in 3 independent experiments.

U373 glioblastoma cells = assay: Glioblastoma cell invasion through Matrigel matrix (Boyden chambers); type: cell-based; conditions: Homo sapiens, U373 MG
Description: The in vitro invasiveness of glioblastoma cells was assayed using a previously published method which employs Matrigel-coated Costar 24-well transwell cell culture chambers (“Boyden chambers”) with 8.0-μm-pore polycarbonate filter inserts (Albini, A., Iwamoto, Y., Kleinman, H. K., Martin, G. R., Aaronson, S. A., Kozlowski, J. M., and McEwan, R. N., 1987, Cancer Res., 47:3239-3245). The chamber filters were coated with 50 μg/ml of Matrigel matrix, incubated overnight at room temperature under a laminar flow hood and stored at 4° C. Matrigel matrix is made up of several components of the extralcellular matrix (ECM), including collagens, laminin and proteo-glycans
On the day of the experiment, the coated inserts were rehydrated with 0.5 ml serum-free DMEM containing 0.1% bovine serum albumin for 1-2 hours. To study the effects of quinazoline derivatives on invasiveness of glioblastoma cells, exponentially growing cells were incubated overnight with WHI-P97, WHI-P131 and WHI-P154 at various concentrations ranging from 1 μM to 50 μM. The cells were trypsinized, washed twice with serum-free DMEM containing BSA, counted and resuspended at 1×10^5 cells/ml. 0.5 ml cell suspension containing 5×10^4 cells in a serum-free DMEM containing quinazoline compounds or vehicle was added to the Matrigel-coated and rehydrated filter inserts. Next, 750 μl of NIH fibroblast conditioned medium was placed as a chemoattractant in 24-well plates and the inserts were placed in wells and incubated at 37° C. for 48 hours. […] The invasive cells that migrated to the lower side of the filter were fixed, stained with Hema-3 solutions and counted under microscope. Five to 10 random fields per filter were counted to determine the mean (±SE) values for the invasive fraction. The invasive fractions of cells treated with quinazoline derivatives were compared to those of DMSO treated control cells and he percent inhibition of invasiveness was determined using the formula: [formula]
Each treatment condition was evaluated in duplicate in 3 independent experiments. IC50 values were calculated by non-linear regression analysis using Graphpad Prisin Software Version 2.0 (Graphpad Software Inc., San Diego, Calif.).

NALM-6 leukemia cells = assay: MTT cytotoxicity assay, EGF-R negative leukemia cells (negative control line); type: cell-based; conditions: NALM-6; FIG. 5B
Description: Triplicate wells were used for each treatment.
Human glioblastoma cell line U373 was obtained from American.
The percent survival was calculated using the formula: [formula]

[2] = system: U87 human glioblastoma cell line; assay: MTT cytotoxicity assay, U87 glioblastoma cells; type: cell-based; conditions: Homo sapiens, unconjugated compound, read-out: IC50 value
Description: as §1, §2, §3
Apoptosis was also evaluated using the nick-end-labeling assay, as described for Example 3.

[3] = system: U373 human glioblastoma cells; assay: SCID mouse xenograft model of human glioblastoma; conditions: 1 mg/kg/day×10 days i.p.
Description: The right hind legs of the CB. 17 SCID mice were inoculated subcutaneously (s.c.) with 0.5×10^6 U373 human glioblastoma cells in 0.2 mL PBS. […] Daily treatments with PBS, unconjugated EGF (1 mg/kg/dose), and unconjugated WHI-P154 (1 mg/kg/dose) were used as controls. Mice were monitored daily for health status and tumor growth, and were sacrificed if they became moribund developed tumors which impeded their ability to attain food or water, at the end of the 3-month observation period. Tumors were measured using Vernier calipers twice weekly, and the tumor volumes were calculated according to the following formula (Friedman, S. H., mDolan, M. E., Pegg, A. E., Marcelli, S., Keir, S., Catino, J. J., Binger, D. D., Schold, S. C., Jr., 1995, Cancer Res., 55:2853-2857): [formula]
For histopathologic studies, tissues were fixed in 10% neutral buffered formalin, dehydrated, and embedded in paraffin by routine methods. Glass slides with affixed 6 micron tissue sections were prepared and stained with hematoxylin/eosin. Primary endpoints of interest were tumor growth and tumor-free survival outcome. Estimation of life table outcome and comparisons of outcome between groups were done, as previously reported (Waurzyniak, et al., 1997, Clinical Cancer Research 3:881-890; Anderson, et al., 1995, Cancer Res. 55:1321-1327; Uckun, et al., 1997, J. Clin. Oncol. 15:2214-2221).

[4] = one bound for all three coatings, read-out: all IC50 values, adhesion to laminin-, fibronectin- and collagen-coated plates
[5] = U373, 3 independent experiments, 48 hours, read-out: mean IC50 value, invasion through Matrigel matrix
[6] = U373, 3 independent experiments, read-out: range of IC50 values, invasion through Matrigel matrix
[7] = read-out: IC50 value derived from the average values of three experiments, invasion

melting point: 277 to 279 °C
SMILES: COc1cc2ncnc(Nc3cc4ccccc4cc3O)c2cc1OC (as salt: salt) [WHI-P292, 4-(2′-Hydroxy-naphthyl-3′)-amino-6,7-dimethoxyquinazoline]

IC50 (U373 cells; [4]): > 50 µM
IC50 (U373 glioblastoma cells; [5]): 7.07 ± 1.8 µM
IC50 (U373 glioblastoma cells; [6]): 5.08 to 8.59 µM
IC50 (U373 glioblastoma cells; [7]): 7.95 µM
SMILES: COc1cc2ncnc(Nc3ccc(O)cc3)c2cc1OC [WHI-P131, 4-(4′-Hydroxylphenyl)-amino-6,7-dimethoxyquinazoline]

melting point: 225 to 228 °C
SMILES: COc1cc2ncnc(Nc3ccc(C)c(Br)c3)c2cc1OC [WHI-P111, 4-(3′-Bromo-4′-methylphenyl)-amino-6,7-dimethoxyquinazoline]

IC50 (U373 glioblastoma cells; [5]): 10.6 ± 1.8 µM
IC50 (U373 glioblastoma cells; [6]): 9.57 to 11.6 µM
IC50 (U373 glioblastoma cells; [7]): 9.58 µM
SMILES: COc1cc2ncnc(Nc3cc(Br)c(O)c(Br)c3)c2cc1OC [WHI-P97, 4-(3′, 5′-Dibromo-4′-hydroxylphenyl)-amino-6,7-dimethoxyquinazoline]

More lines, now with the values behind:

SMILES: O=c1c(-c2ccc(O)cc2)coc2cc(O)cc(O)c12 [genistein, reference compound]
IC50 ([1]; read-out: IC50 value): > 250 µM
cytotoxicity against brain tumor cells (in words) ([1]; U373, MTT, 0.1 to 250 μM, FIGS. 1A and 1B): also ineffective
inhibition of glioblastoma cell adhesion (in words) (U373 cells; ECM-coated plates): did not affect glioblastoma cell adhesion and motility

SMILES: COc1cc2ncnc(Nc3cc4ccccc4cc3O)c2cc1OC [WHI-P292, 4-(2′-Hydroxy-naphthyl-3′)-amino-6,7-dimethoxyquinazoline]
IC50 [1]: 38.2 µM

SMILES: COc1cc2ncnc(Nc3ccc(O)c(Br)c3)c2cc1OC [WHI-P154, 4-(3′-Bromo-4′-hydroxylphenyl)-amino-6,7-dimethoxyquinazoline]
cytotoxicity against EGF-R negative leukemia cells (in words) (NALM-6 leukemia cells): marked cytotoxicity
IC50 ([1]; read-out: composite survival curve IC50 value): 158 µM
IC50 ([1]; read-out: mean (±SE) IC50 value): 167 ± 26.9 µM
IC50 [2]: 179 ± 18.5 µM
IC50 (U373 cells; 16 hours treatment, N=3, read-out: mean IC50 value, adhesion to collagen-coated plates): 42.7 ± 2.5 µM
IC50 (U373 cells; 16 hours treatment, N=3, read-out: mean IC50 value, adhesion to fibronectin-coated plates): 29.8 ± 3.1 µM
IC50 (U373 cells; 16 hours treatment, N=3, read-out: mean IC50 value, adhesion to laminin-coated plates): 36.1 ± 3.5 µM
time at which tumors reached a size of 50 mm^3 [3]: 36.0 ± 5.1 days
median tumor-free survival ([3]; N=5): 19 days
IC50 (U373 glioblastoma cells; [5]): 4.46 ± 0.8 µM
IC50 (U373 glioblastoma cells; [6]): 3.53 to 5.01 µM
IC50 (U373 glioblastoma cells; [7]): 5.2 µM

SMILES: COc1cc2ncnc(Nc3cccc(Br)c3)c2cc1OC [WHI-P79, 4-(3′-Bromophenyl)-amino-6,7-dimethoxyquinazoline]
IC50 (U373 cells; [4]): > 50 µM
